16 molecules from ChEMBL document CHEMBL3797190, “Development of 3,5-Dinitrobenzylsulfanyl-1,3,4-oxadiazoles and Thiadiazoles as Selective Antitubercular Agents Active Against Replicating and Nonreplicating Mycobacterium tuberculosis” (J Med Chem, 2016) can be followed below.

≈ marks a conversion by molar mass, not a printed value.

What all share (format): functional
The test system of test [1] is Mycobacterium kansasii. In words: Antimycobacterial activity against Mycobacterium kansasii CNCTC My 6509/96 after 14 days by microdilution method. Particulars: CNCTC My 6509/96, 336 h.
The subject of test [2] is Mycobacterium kansasii. In words: Antimycobacterial activity against Mycobacterium kansasii CNCTC My 235/80 after 21 days by microdilution method. Particulars: CNCTC My 235/80, 504 h.
The subject of test [3] is Mycobacterium kansasii. In words: Antimycobacterial activity against Mycobacterium kansasii CNCTC My 6509/96 after 21 days by microdilution method. Particulars: CNCTC My 6509/96, 504 h.
Test [4] deals with Mycobacterium avium. In words: Antimycobacterial activity against Mycobacterium avium CNCTC My 330/88 after 21 days by microdilution method. Particulars: CNCTC My 330/88, 504 h.
Test [5] concerns Mycobacterium tuberculosis. The experiment in a line: Antimycobacterial activity against Mycobacterium tuberculosis CNCTC My 331/88 after 21 days by microdilution method. Particulars: CNCTC My 331/88, 504 h.
In test [6] the test system is Mycobacterium kansasii. In words: Antimycobacterial activity against Mycobacterium kansasii CNCTC My 235/80 after 7 days by microdilution method. Particulars: CNCTC My 235/80, 168 h.
For test [7], the system named is Mycobacterium kansasii. In words: Antimycobacterial activity against Mycobacterium kansasii CNCTC My 6509/96 after 7 days by microdilution method. Particulars: CNCTC My 6509/96, 168 h.
For test [8], the system named is Mycobacterium avium. In words: Antimycobacterial activity against Mycobacterium avium CNCTC My 330/88 after 14 days by microdilution method. Particulars: CNCTC My 330/88, 336 h.
The test system of test [9] is Mycobacterium kansasii. In words: Antimycobacterial activity against Mycobacterium kansasii CNCTC My 235/80 after 14 days by microdilution method. Particulars: CNCTC My 235/80, 336 h.
Test [10] deals with Mycobacterium tuberculosis. The experiment in a line: Antimycobacterial activity against Mycobacterium tuberculosis CNCTC My 331/88 after 14 days by microdilution method. Particulars: CNCTC My 331/88, 336 h.

For the molecule `Cc1ccc(-c2nnc(SCc3cc([N+](=O)[O-])cc(C(F)(F)F)c3)s2)cc1`, the MIC99 in test [1] was over 32 µM; in test [2], over 32 µM; in [3], over 32 µM; in test [4] it was over 500 µM; in [5], over 32 µM; in test [6], over 32 µM. The MIC99 in [7] was over 32 µM; in test [8], over 500 µM; in [9], over 32 µM; in test [10] it was over 32 µM.
On to `Cc1nnc(SCc2cc([N+](=O)[O-])cc([N+](=O)[O-])c2)o1`, for which the MIC99 amounted to 16 µM (≈ 4.74 µg/mL) in test [1]; 16 µM (≈ 4.74 µg/mL) in test [2]; 32 µM (≈ 9.48 µg/mL) in [3]; 500 µM (≈ 148 µg/mL) in test [4]; 8 µM (≈ 2.37 µg/mL) in [5]; 4 µM (≈ 1.19 µg/mL) in test [6]. The MIC99 was found to be 16 µM (≈ 4.74 µg/mL) in test [7], 500 µM (≈ 148 µg/mL) in test [8], 8 µM (≈ 2.37 µg/mL) in test [9] and 4 µM (≈ 1.19 µg/mL) in [10].
Regarding `O=[N+]([O-])c1ccc(CSc2nnc(-c3ccccc3)s2)c([N+](=O)[O-])c1`, the MIC99 worked out at 2 µM (≈ 0.749 µg/mL) in test [1]; 4 µM (≈ 1.5 µg/mL) in test [2]; 4 µM (≈ 1.5 µg/mL) in test [3]; 32 µM (≈ 12 µg/mL) in [4]; 16 µM (≈ 5.99 µg/mL) in test [5]; 1 µM (≈ 0.374 µg/mL) in test [6]. Also, the MIC99 in [7] was 1 µM (≈ 0.374 µg/mL); in [8], 8 µM (≈ 3 µg/mL); in [9], 4 µM (≈ 1.5 µg/mL); in test [10] it was 8 µM (≈ 3 µg/mL).
Consider `O=[N+]([O-])c1ccc(-c2nnc(SCc3cc([N+](=O)[O-])cc(C(F)(F)F)c3)s2)cc1`, for which the MIC99 in [1] is over 32 µM; in test [2], over 32 µM; in [3] it was over 32 µM; in test [4] it was over 500 µM; in test [5], over 32 µM; in [6] it was over 32 µM. Further, the MIC99 is over 32 µM in test [7], over 500 µM in [8], over 32 µM in [9] and over 32 µM in [10].
For `Cc1cc(C)cc(-c2nnc(SCc3cc([N+](=O)[O-])cc([N+](=O)[O-])c3)o2)c1`, the MIC99 in [1] was 1 µM (≈ 0.386 µg/mL); in test [2], 1 µM (≈ 0.386 µg/mL); in test [3] it was 2 µM (≈ 0.773 µg/mL); in test [4] it was over 32 µM; in test [5], 0.06 µM (≈ 0.0232 µg/mL); in test [6], 0.25 µM (≈ 0.0966 µg/mL). Also, the MIC99 in test [7] is 0.5 µM (≈ 0.193 µg/mL); in [8], over 32 µM; in [9], 0.5 µM (≈ 0.193 µg/mL); in test [10] it was 0.06 µM (≈ 0.0232 µg/mL).
Turning to `COc1cc(OC)cc(-c2nnc(SCc3cc([N+](=O)[O-])cc([N+](=O)[O-])c3)o2)c1`, the MIC99 worked out at 0.5 µM (≈ 0.209 µg/mL) in test [1]; 0.5 µM (≈ 0.209 µg/mL) in [2]; 1 µM (≈ 0.418 µg/mL) in [3]; 16 µM (≈ 6.69 µg/mL) in test [4]; 0.125 µM (≈ 0.0523 µg/mL) in test [5]; 0.125 µM (≈ 0.0523 µg/mL) in test [6]. For the same molecule, the MIC99 was determined as 0.125 µM (≈ 0.0523 µg/mL) in [7], 16 µM (≈ 6.69 µg/mL) in [8], 0.25 µM (≈ 0.105 µg/mL) in test [9] and 0.125 µM (≈ 0.0523 µg/mL) in [10].
In the case of `O=[N+]([O-])c1ccc(-c2nnc(SCc3cc([N+](=O)[O-])cc(C(F)(F)F)c3)o2)cc1`, the MIC99 in [1] is 32 µM (≈ 13.6 µg/mL); in [2] it was 32 µM (≈ 13.6 µg/mL); in test [3], 32 µM (≈ 13.6 µg/mL); in [4] it was over 500 µM; in test [5], 32 µM (≈ 13.6 µg/mL); in test [6], 16 µM (≈ 6.82 µg/mL). Further, the MIC99 is 16 µM (≈ 6.82 µg/mL) in [7], over 500 µM in test [8], 32 µM (≈ 13.6 µg/mL) in test [9] and 32 µM (≈ 13.6 µg/mL) in test [10].
Turning to `O=[N+]([O-])c1ccc(CSc2nnc(-c3ccc([N+](=O)[O-])cc3)s2)cc1`, the MIC99 in test [1] was found to be 62 µM (≈ 23.2 µg/mL); in [2], 250 µM (≈ 93.6 µg/mL); in test [3], 62 µM (≈ 23.2 µg/mL); in test [4], 250 µM (≈ 93.6 µg/mL); in test [5], 62 µM (≈ 23.2 µg/mL); in [6], 250 µM (≈ 93.6 µg/mL). Further, the MIC99 in test [7] turned out to be 62 µM (≈ 23.2 µg/mL); in test [8] it was 250 µM (≈ 93.6 µg/mL); in test [9], 250 µM (≈ 93.6 µg/mL); in test [10], 62 µM (≈ 23.2 µg/mL).
Turning to `Nc1cc(CSc2nnc(-c3ccc([N+](=O)[O-])cc3)s2)cc([N+](=O)[O-])c1`, the MIC99 in [1] was 250 µM (≈ 97.4 µg/mL); in test [2], 250 µM (≈ 97.4 µg/mL); in [3], 250 µM (≈ 97.4 µg/mL); in [4] it was 250 µM (≈ 97.4 µg/mL); in test [5], 125 µM (≈ 48.7 µg/mL); in test [6], 250 µM (≈ 97.4 µg/mL). Moreover, the MIC99 came out at 250 µM (≈ 97.4 µg/mL) in test [7], 250 µM (≈ 97.4 µg/mL) in [8], 250 µM (≈ 97.4 µg/mL) in test [9] and 125 µM (≈ 48.7 µg/mL) in test [10].
Turning to `O=[N+]([O-])c1ccc(CSc2nnc(-c3ccc([N+](=O)[O-])cc3)o2)cc1`, the MIC99 was found to be 62 µM (≈ 22.2 µg/mL) in test [1]; 250 µM (≈ 89.6 µg/mL) in test [2]; 62 µM (≈ 22.2 µg/mL) in test [3]; 250 µM (≈ 89.6 µg/mL) in test [4]; 250 µM (≈ 89.6 µg/mL) in [5]; 250 µM (≈ 89.6 µg/mL) in [6]. The MIC99 is 62 µM (≈ 22.2 µg/mL) in [7], 250 µM (≈ 89.6 µg/mL) in test [8], 250 µM (≈ 89.6 µg/mL) in test [9] and 250 µM (≈ 89.6 µg/mL) in test [10].
Regarding `Cc1ccc(-c2nnc(SCc3cc([N+](=O)[O-])cc(C(F)(F)F)c3)o2)cc1`, the MIC99 in test [1] is over 32 µM; in test [2], over 32 µM; in test [3] it was over 32 µM; in test [4] it was over 500 µM; in [5] it was over 32 µM; in test [6] it was over 32 µM. For the same molecule, the MIC99 was over 32 µM in test [7], over 500 µM in [8], over 32 µM in [9] and over 32 µM in test [10].
For `Cc1ccc(-c2nnc(SCc3cc([N+](=O)[O-])cc([N+](=O)[O-])c3)s2)cc1`, the MIC99 was 1 µM (≈ 0.388 µg/mL) in test [1]; 1 µM (≈ 0.388 µg/mL) in test [2]; 2 µM (≈ 0.777 µg/mL) in [3]; over 125 µM in test [4]; 0.125 µM (≈ 0.0486 µg/mL) in [5]; 0.5 µM (≈ 0.194 µg/mL) in [6]. In addition, the MIC99 in test [7] is 0.5 µM (≈ 0.194 µg/mL); in [8], over 125 µM; in [9], 0.5 µM (≈ 0.194 µg/mL); in [10], 0.125 µM (≈ 0.0486 µg/mL).
Consider `Cc1nnc(SCc2cc([N+](=O)[O-])cc([N+](=O)[O-])c2)s1`, for which the MIC99 in test [1] was determined as 8 µM (≈ 2.5 µg/mL); in test [2], 8 µM (≈ 2.5 µg/mL); in test [3], 16 µM (≈ 5 µg/mL); in [4], 125 µM (≈ 39 µg/mL); in test [5], 4 µM (≈ 1.25 µg/mL); in test [6], 4 µM (≈ 1.25 µg/mL). The MIC99 in [7] is 8 µM (≈ 2.5 µg/mL); in test [8], 125 µM (≈ 39 µg/mL); in test [9], 4 µM (≈ 1.25 µg/mL); in test [10], 4 µM (≈ 1.25 µg/mL).
For `Nc1cc(N)cc(CSc2nnc(-c3ccc([N+](=O)[O-])cc3)s2)c1`, the MIC99 in test [1], in test [2], in test [3], in [4], in test [5] and in [6] was 250 µM (≈ 89.9 µg/mL) in each case. In addition, the MIC99 in test [7], in test [8], in test [9] and in [10] was 250 µM (≈ 89.9 µg/mL) in each case.
Take `O=[N+]([O-])c1cc(CSc2nnc(C3CCCCC3)o2)cc([N+](=O)[O-])c1`: the MIC99 in test [5] and in test [10] was at most 0.03 µM each time.
In the case of `NNC(=O)c1ccncc1` [ISONIAZID], the MIC99 in test [1] is 4 µM (≈ 0.549 µg/mL); in [2], over 250 µM; in test [3] it was 4 µM (≈ 0.549 µg/mL); in test [4] it was over 250 µM; in [6], over 250 µM; in test [7], 4 µM (≈ 0.549 µg/mL). In addition, the MIC99 in test [8] and in test [9] was over 250 µM throughout.
